Experimental findings from PMC9206500 (Journal of medicinal chemistry, 2021) are described below.

The subject of one assay is M14/LCC6MDR1. Kind of assay: MTS cell proliferation assay, M14/LCC6MDR1. Type of assay: cell-based. The note with it: Homo sapiens, 72 h, read-out: IC50, M14/LCC6MDR1. For orientation: Formazan colour is commonly taken as a measure of viable cells.
A further assay relates to A375/TxR cells. Kind of assay: Cell cycle analysis by flow cytometry. The note with it: 24 h; controls 10 nM, 60c 2.5, 5, 10 nM. Type of assay: cell-based, human. In general terms: A flow cytometer gives signals particle by particle.

With `COc1cc2c(c(OC)c1OC)-c1ccc(OC)c(=O)cc1[C@@H](NC(C)=O)CC2` [colchicine], in the assay on M14/LCC6MDR1, the IC50 is above 1000 nM. In the assay with A375/TxR cells, the “effect on cell cycle distribution” value is “normal cell cycle progression”.
